Laboratory results: patent publication US20090270479A1, “Genetic and Epigenetic Alterations In the Diagnosis and Treatment of Cancer” (priority 2005, published 2009)

T1: p107 (human, UniProt P28749 1-1068)
T1 sequence (looked up): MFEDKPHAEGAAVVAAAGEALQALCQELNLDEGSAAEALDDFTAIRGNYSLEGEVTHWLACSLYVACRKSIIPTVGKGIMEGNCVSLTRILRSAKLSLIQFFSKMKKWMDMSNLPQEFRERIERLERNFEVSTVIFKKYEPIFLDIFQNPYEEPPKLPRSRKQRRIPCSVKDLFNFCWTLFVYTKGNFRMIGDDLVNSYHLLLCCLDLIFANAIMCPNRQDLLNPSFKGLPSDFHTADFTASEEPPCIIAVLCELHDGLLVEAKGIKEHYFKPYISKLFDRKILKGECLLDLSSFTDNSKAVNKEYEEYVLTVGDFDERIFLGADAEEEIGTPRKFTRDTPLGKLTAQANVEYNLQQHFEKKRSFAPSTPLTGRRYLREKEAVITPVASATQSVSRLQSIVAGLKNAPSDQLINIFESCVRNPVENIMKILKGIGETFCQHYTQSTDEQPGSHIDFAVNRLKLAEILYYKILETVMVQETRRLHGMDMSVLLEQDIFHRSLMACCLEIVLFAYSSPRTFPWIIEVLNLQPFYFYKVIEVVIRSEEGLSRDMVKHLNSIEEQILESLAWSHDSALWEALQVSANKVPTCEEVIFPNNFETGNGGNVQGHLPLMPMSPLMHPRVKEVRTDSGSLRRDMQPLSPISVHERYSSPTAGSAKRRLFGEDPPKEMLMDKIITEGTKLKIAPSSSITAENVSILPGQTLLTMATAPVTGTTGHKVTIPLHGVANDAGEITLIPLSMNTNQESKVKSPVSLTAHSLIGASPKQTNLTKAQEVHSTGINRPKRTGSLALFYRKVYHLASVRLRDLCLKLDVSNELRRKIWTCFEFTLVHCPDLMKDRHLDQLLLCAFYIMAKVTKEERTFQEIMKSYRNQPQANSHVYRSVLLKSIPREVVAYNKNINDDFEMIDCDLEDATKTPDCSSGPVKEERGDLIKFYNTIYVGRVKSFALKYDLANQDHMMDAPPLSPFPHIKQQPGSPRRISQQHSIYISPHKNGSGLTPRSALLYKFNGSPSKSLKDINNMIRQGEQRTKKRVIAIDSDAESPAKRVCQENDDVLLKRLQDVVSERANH

B1: plasminogen activator inhibitor type-2 (other, human, UniProt P05120 1-415, looked up)
chain: MEDLCVANTLFALNLFKHLAKASPTQNLFLSPWSISSTMAMVYMGSRGSTEDQMAKVLQFNEVGANAVTPMTPENFTSCGFMQQIQKGSYPDAILQAQAADKIHSSFRSLSSAINASTGNYLLESVNKLFGEKSASFREEYIRLCQKYYSSEPQAVDFLECAEEARKKINSWVKTQTKGKIPNLLPEGSVDGDTRMVLVNAVYFKGKWKTPFEKKLNGLYPFRVNSAQRTPVQMMYLREKLNIGYIEDLKAQILELPYAGDVSMFLLLPDEIADVSTGLELLESEITYDKLNKWTSKDKMAEDEVEVYIPQFKLEEHYELRSILRSMGMEDAFNKGRANFSGMSERNDLFLSEVFHQAMVDVNEEGTEAAAGTGGVMTGRTGHGGPQFVADHPFLFLIMHKITNCILFFGRFSSP
notes: Endogenous protein, immunoprecipitated with anti-PAI-2 antibody; also called PAI-2

Columns and labels:
[1] = tested on: pRb2/p130 expression in Weri-Rb1 cells; test: Western blot of pRb2/p130 in treated Weri-Rb1 cells; format: cell-based, human; details: Weri-Rb1 whole cell lysates, treated 24-96 h, vs untreated control after 96 h culture
Protocol: (§1) Weri-Rb1 cell line and 5-Aza-2-dc DNA methyltransferase inhibitor treatment—Human retinoblastoma cell line (Weri-Rb1 ) obtained from the American Type Culture Collection (ATCC, Manassas, Va., USA) was cultured in RPMI 1640 supplemented with 10% FCS at spin ratio of 1:2 once a week. A volume of […] of 5-Aza-2-dc, a DNA methyltransferase inhibitor (Sigma-Aldrich, St. Louis, Mo., USA) was added to medium culture of treated cells.
Western blotting—Western blot analysis of pRb/p105 and pRb2/p130 was performed on three fresh samples of primary tumors (samples 8-10). Weri-Rb1 cells and one normal retina sample, obtained from a patient who underwent enucleation for painful absolute glaucoma, served as an experimental control. Fresh tissues were immediately frozen in liquid nitrogen. Furthermore, Weri-Rb1 cells treated and untreated with 5-Aza-2-dc at various times were processed for Western blot analysis. Whole tissues lysates were prepared by resuspending homogenized tissues and pelleted cells in lysis buffer (50 mM Tris/HCl, 5 mM EDTA, 250 mM NaCl, 50 mM NaF, 0.1% Triton X-100, 0.1 mM Na3VO4 plus fresh inhibitors). Equal amounts of 100 μg of total extracts were loaded and resolved on a 7 or 10% SDS-PAGE. The gels were then transferred onto a nitrocellulose filter and checked by using 0.1% Ponceau red. […]

[2] = tested on: Weri-Rb1 cells; test: Cell viability (MTT) / proliferation of Weri-Rb1 cells; format: cell-based, human; details: 2.5 μM, after 96 h of treatment, vs untreated
Protocol: as §1
(§2) Cell viability (MTT) and FACS analysis—Quantitative cell viability was measured by colorimetric assay using a cell proliferation kit (MTT) (Roche Molecular Biochemicals, Mannheim, Germany). A total of 5000 cells/well Weri-Rb1 and 5-Aza-2-dc-treated Weri-Rb1 were grown in microtiter plates (96-well) in a final volume of 100 μl culture medium. The incubation period of cell culture was 24, 48 and 96 h in the presence or absence of the 2.5 μM DNA methyltransferase inhibitor. After incubation period, 10 μl MTT labeling reagent was added to each well to a final concentration […]. MTT is cleaved by growing cells to form formazan crystals which allows quantification of cell viability by spectrdphotometric analysis (ELISA) at 550 nm. Cell viability was expressed as the percentage of the absorbance of drug-treated and untreated cells relative to that of the untreated cells of 0 h. […]

[3] = tested on: RB2/p130 mRNA in H23 cells; test: Multiplex RT-PCR of RB2/p130 mRNA in treated H23 cells; format: cell-based, human; details: 2.5 μM, beginning at 48 hours after treatment, vs basal level
Protocol: (§3) Cell cultures and treatment—Cell lines were purchased from the American Type Culture Collection (Rockville, Md.). The cells were cultured in DMEM or RPMI1640 medium supplemented with 10% fetal bovine serum and 2 mM L-glutamine. For treatment, cells were seeded at a density of 5×10^5 cells/100-mm tissue culture dish. 2.5 μM of DNA methyltransferase inhibitor (5-AZA-2-deoxicytidine) was added to the culture medium for up 96 hours.
Multiplex RT-PCR—Multiplex RT-PCR analysis was carried out with 0.2 μg of total RNA from treated and untreated H23 cells. PCR was performed using RB2/p130 primers and β-actin specific primers (SuperScript RT-PCR System, Invitrogen).

[4] = tested on: pRb2/p130 protein in H23 cells; test: Western blot of pRb2/p130 in treated H23 cells; format: cell-based, human; details: 2.5 μM, observed at 72 hours, maximum at 96 hours
Protocol: as §3
Western blot analysis of pRb2/p130 was performed using total protein lysates from untreated and 5-AZA-2-deoxicytidine treated H23 cells. Whole cell lysates were prepared in lysis buffer (50 mM Tris/HCl, 5 mM EDTA, 250 mM NaCl, 50 mM NaF, 0.1% Triton-X, 0.1 mM Na3VO4 plus fresh inhibitors). Equal amounts of 100 μg of total extracts were loaded and resolved on a 7% SDS-PAGE. The gels were then transferred onto a nitrocellulose filter and checked by using 0.1% Ponceau red. The monoclonal anti-pRb2/p130 (Transduction Laboratories, Ky., USA) was used at a dilution of 1:800.

[5] = tested on: Weri-Rb1 cells; test: FACS analysis of 5-Aza-2-dc treated Weri-Rb1 cells; format: cell-based, human; details: 2.5 μM
Protocol: as §1, §2

[6] = target: T1, p107; test: co-immunoprecipitation with anti-PAI-2 antibody from nuclear and cytoplasmic lysates of primary human corneal and conjunctival epithelial cells, Western blot with anti-p107
From the text: Western blot and chromatin immuoprecipitation assay—Cytoplasmic and nuclear proteins were extracted from 12 couples of paired normal human corneal and conjunctival epithelial cells by using the PARIS kit (Ambion) according to the manufacturer's instructions. Efficient cytoplasmic and nuclear fractionation was confirmed by Western blotting analysis using anti-GAPDH antibody for the cytoplasmic fraction and anti Oct-1 antibody for the nuclear fraction. Immunoprecipitation experiments were performed using the cytoplasmic and nuclear fractions with PAI-2 as immunoprecipitating antibody (N-18, Santa Cruz Biotechnology, Calif.). The presence of pRb2/p130, Rb1/p105 and p107 in both PAI-2 nuclear and cytoplasmic precipitates was assessed with anti-pRb2/p130, anti-Rb1/p105 and p107 antibodies (211.6, C-15 and C-18, respectively; Santa Cruz Biotechnology, Calif.) by Western blotting.
In order to assess whether PAI-2 associated with the retinoblastoma family proteins, PAI-2 was immunoprecipitated from nuclear and cytoplasmic lysates of twelve paired couples of normal primary human corneal and conjunctival epithelial cells. The immunoprecipitates were then analyzed by Western blotting using anti-pRb2/p130, anti-Rb1/p105, anti-p107 and anti-PAI-2 antibodies. For all the cell lines analyzed, anti-PAI-2 antibody co-immunoprecitated pRb2/p130 and Rb1/p105 from both nuclear and cytoplasmic fractions. […]

[7] = listed as 5-AZA-2-deoxycytidine

Row | Molecule | expression of endogenous pRb2/p130 [1] | number of cells (proliferation rate) [2] | RB2/p130 mRNA level [3] | RB2/p130 mRNA level [3, 7] | pRb2/p130 protein level, active hypophosphorylated form [4] | pRb2/p130 protein level, active hypophosphorylated form [4, 7] | amount of apoptotic cells ([5]; 96 h, % of treated cells (control 6%)) | G1 arrested cells ([5]; after 24 h, % of treated cells (control 30%)) | binding result [6]
1 | Nc1ncn([C@H]2C[C@H](O)[C@@H](CO)O2)c(=O)n1 [5-Aza-dC, 5-Aza-2-deoxycytidine] | increased expression | markedly reduced | increase | increased | increase | increased | 20% | 40% | 
2 | B1 |  |  |  |  |  |  |  |  | no binding
